Measured values reported in US20260216359A1, “CYCLIC PEPTIDE-BASED LYSOSOME TARGETING DEGRADERS” (Wisconsin Alumni Research Foundation, priority 2023, published 2026).

Tests used:
EGFR = assay: inhibition of Ctx-PEG12-cRGD-induced EGFR degradation in MCF7 cells, western blot; assay type: cell-based; conditions: BAF1 50 nM, CQ 10 uM, in the presence of 10 nM Ctx-PEG12-cRGD for 6h
Description: MCF7 cells were seeded at 70% confluence in a 24-well plate and incubated in 350 μL complete culture media overnight. Cells were pre-treated with free excess cRGD-azide with concentrations indicated in the figure at 4° C. for 1 h before incubating with 10 nm Ctx-PEG12-cRGD for 8 h. Cells were then harvested for western blot.
MCF7 cells were seeded at 70% confluence in a 24-well plate and incubated in 350 μL complete culture media overnight. Cells were treated with lysosomal degradation inhibitor Bafilomycin A1 (BAF1) at 50 nM and Chloroquine (CQ) at 10 uM in the presence of 10 nM Ctx-PEG12-cRGD for 6h.

anti-biotin-647 = assay: lysosomal degradation of anti-biotin-647 in MCF7 cells, in gel fluorescence; assay type: cell-based; conditions: 25 nM Ab-cRGD and 50 nM anti-biotin-647 for 3 h, then 50 nM BAF1 for 3 h
Description: MCF7 cells were seeded in a 48-well plate at 70% confluence and maintained in 200 μL complete culture media. Next day, cells were incubated with 25 nM of Ab-cRGD and 50 nM of anti-biotin-647 for 3 h followed by three washes with PBS. Cells were then maintained in fresh media with or without 50 nM Bafilomycin A1 (BAF1) for another 3 h before harvested for in gel fluorescence analysis.

α5β1 = α5β1 (Homo sapiens, UniProt P05556+P08648); conditions: Kapp et al., 2017; one range given for αvβ5, αvβ6, α5β1; cited from earlier work
Chain of α5β1 (P08648 42-894 limits assumed): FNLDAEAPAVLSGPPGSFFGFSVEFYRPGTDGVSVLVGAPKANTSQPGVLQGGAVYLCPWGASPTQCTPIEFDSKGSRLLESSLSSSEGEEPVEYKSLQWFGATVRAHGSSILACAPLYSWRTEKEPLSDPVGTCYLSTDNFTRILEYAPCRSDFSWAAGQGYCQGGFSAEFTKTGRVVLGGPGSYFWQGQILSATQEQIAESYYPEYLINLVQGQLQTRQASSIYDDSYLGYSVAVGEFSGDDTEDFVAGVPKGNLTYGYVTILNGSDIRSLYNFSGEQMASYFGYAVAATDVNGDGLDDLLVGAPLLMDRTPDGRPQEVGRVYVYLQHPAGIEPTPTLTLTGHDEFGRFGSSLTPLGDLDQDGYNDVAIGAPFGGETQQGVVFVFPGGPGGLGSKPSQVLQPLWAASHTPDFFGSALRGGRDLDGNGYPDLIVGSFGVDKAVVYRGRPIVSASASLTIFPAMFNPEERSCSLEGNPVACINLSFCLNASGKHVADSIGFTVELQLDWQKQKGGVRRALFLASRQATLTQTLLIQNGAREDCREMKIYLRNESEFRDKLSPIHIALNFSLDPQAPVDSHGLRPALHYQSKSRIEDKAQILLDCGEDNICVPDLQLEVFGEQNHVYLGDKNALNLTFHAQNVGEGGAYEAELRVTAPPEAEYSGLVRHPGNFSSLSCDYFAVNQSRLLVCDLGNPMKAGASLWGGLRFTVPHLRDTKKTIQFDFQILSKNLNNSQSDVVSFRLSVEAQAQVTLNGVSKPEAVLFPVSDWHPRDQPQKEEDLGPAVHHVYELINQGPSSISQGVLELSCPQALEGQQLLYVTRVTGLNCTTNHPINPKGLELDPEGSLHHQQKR
Chain of α5β1 (P08648 895-995 partner limits assumed): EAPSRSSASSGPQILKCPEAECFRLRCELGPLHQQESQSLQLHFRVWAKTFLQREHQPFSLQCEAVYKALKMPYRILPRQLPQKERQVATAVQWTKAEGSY
Chain of α5β1 (P05556 21-728 limits assumed): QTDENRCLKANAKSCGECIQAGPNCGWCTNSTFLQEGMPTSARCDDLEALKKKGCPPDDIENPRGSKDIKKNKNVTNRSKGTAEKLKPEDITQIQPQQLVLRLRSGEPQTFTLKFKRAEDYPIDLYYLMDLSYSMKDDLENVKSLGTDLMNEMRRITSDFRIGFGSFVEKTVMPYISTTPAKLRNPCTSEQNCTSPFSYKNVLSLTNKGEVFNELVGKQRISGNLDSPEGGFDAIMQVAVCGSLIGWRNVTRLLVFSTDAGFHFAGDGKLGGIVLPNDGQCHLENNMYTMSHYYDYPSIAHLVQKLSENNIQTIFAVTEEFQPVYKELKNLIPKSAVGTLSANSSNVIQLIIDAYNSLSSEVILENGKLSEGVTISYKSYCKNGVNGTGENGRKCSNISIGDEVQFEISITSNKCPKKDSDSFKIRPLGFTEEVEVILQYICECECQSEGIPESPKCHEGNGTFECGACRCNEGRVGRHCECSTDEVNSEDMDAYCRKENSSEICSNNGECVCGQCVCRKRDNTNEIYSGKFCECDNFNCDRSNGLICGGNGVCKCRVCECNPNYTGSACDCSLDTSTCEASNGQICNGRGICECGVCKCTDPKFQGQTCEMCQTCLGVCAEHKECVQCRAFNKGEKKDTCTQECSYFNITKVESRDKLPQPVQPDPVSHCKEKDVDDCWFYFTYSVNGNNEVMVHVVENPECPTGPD

Row | Compound | inhibition of EGFR degradation by lysosomal degradation inhibitors (FIG. 16) (EGFR) | inhibition of lysosomal degradation of anti-biotin-647 (FIG. 14) (anti-biotin-647) | binding to α5β1 (α5β1) [nM]
1 | CCN(CC)CCCC(C)Nc1ccnc2cc(Cl)ccc12 (stereo not shown) [Chloroquine] | inhibition of EGFR degradation | – | –
2 | CO/C1=C\C(C)=C\[C@@H](C)[C@@H](O)[C@@H](C)C/C(C)=C/C=C/[C@H](OC)[C@@H]([C@@H](C)[C@@H](O)[C@H](C)[C@@]2(O)C[C@@H](O)[C@H](C)[C@@H](C(C)C)O2)OC1=O [Bafilomycin A1] | inhibition of EGFR degradation | inhibition of lysosomal degradation of anti-biotin-647 | –
3 | cyclo(Arg-Gly-Asp-D-Phe-Lys) [cRGD] | – | – | 50 to 350
